We go through two molecules from patent US9289411B2, “Anti-HCV agent” (NATIONAL UNIVERSITY CORPORATION OKAYAMA UNIVERSITY, priority 2011, dated 2016).

Data set [1] concerns ORL8 cells. Briefly: Cytotoxic effect, WST-1 cell proliferation assay in ORL8 cells. Conditions: ORL8 cells. From the text: Assay systems using OR6 cells (HCV-O strain), 1B-4R cells (HCV-1B-4 strain), and AH1R cells (HCV-AH1R strain) as HuH-7 cell-derived full-length HCV-RNA-replicating cells, and ORL8 cells (HCV-O strain), ORL11 cells (HCV-O strain), 1B-4RL cells (HCV-1B-4 strain), and KAH5RL cells (HCV-KAH5 strain) as Li23 cell-derived full-length HCV-RNA-replicating cells were used for the quantitative analysis of anti-HCV activity and evaluation of a cytotoxic effect in the present invention. The three cell lines, i.e., the 1B-4R cells, the 1B-4RL cells, and the KAH5RL cells have been disclosed in WO 2010/026965 A1. The AH1R cells may be produced with reference to Mori K et al., BBRC, 371:104-109, 2008 and WO 2010/026965 A1. In addition, all the HCV strains belong to genotype 1b.
In the measurement of the renilla luciferase activity and the measurement by the WST-1 method, experiments were performed in three wells independent of each other, and their means and standard deviation were calculated.
The cytotoxic effects of N-89 and N-251 were examined using ORL8 cells and the CC50 values were calculated. An experimental scale and schedule are the same as those in Example 1.
N-89 and N-251 were added so as to achieve concentrations of 5 μM, a 2-fold dilution series from 5 μM (2.5, 1.3, 0.63, 0.31, 0.16, and 0.08 μM), and 0. The WST-1 cell proliferation assay was performed 72 hours after the culture.
The cytotoxic effect of artemisinin was examined using OR6 and ORL8 cells and the CC50 values were calculated. An experimental scale and schedule are the same as those in Example 1. Artemisinin was added so as to achieve concentrations of 400 μM, a 2-fold dilution series from 400 μM (200, 100, 50, 25, and 13 μM), and 0. The WST-1 cell proliferation assay was performed 72 hours after the culture.

For data set [2], the system named is HCV core protein in OR6 cells. Briefly: Western blot analysis of HCV core protein expression in OR6 cells. The format is cell-based, HCV genotype 1b. The note with it: 72 hours, N-89 0.31-20 μM, N-251 0.16-10 μM. How it is done:
N-89 and N-251 were diluted with DMSO. After 72 hours, sampling was performed with 100 μL of 2×SDS buffer. 10 μL of a sample were applied to SDS-PAGE electrophoresis and subjected to Western blot analysis using an anti-HCV core antibody and an anti-β-actin antibody according to a conventional method. For the detection of β-actin, a sample diluted 10-fold with 2×SDS buffer in advance was used because the expression amount of β-actin was high.

The subject of data set [3] is HCV-RNA replication in KAH5RL cells (HCV-KAH5 strain, Li23-derived). Briefly: microbe, parasite or virus in culture. Type of data set: cell-based, HCV genotype 1b. Conditions: for EC50: Hepatitis C virus, 72 hours, renilla luciferase activity.
Protocol: N-89 was added so as to achieve concentrations of 10 μM, a 2-fold dilution series from 10 μM (5, 2.5, 1.3, 0.63, 0.31, and 0.16 μM), and 0. The luciferase activities were measured 72 hours after the culture.
N-251 was added so as to achieve concentrations of 5 μM, a 2-fold dilution series from 5 μM (2.5, 1.3, 0.63, 0.31, 0.16, and 0.08 μM), and 0. The luciferase activities were measured 72 hours after the culture.
In data set [4] the test system is HCV core protein in ORL8 cells. Briefly: Western blot analysis of HCV core protein expression in ORL8 cells. Type of data set: cell-based, HCV genotype 1b. Conditions: 72 hours, 0.078-5 μM. The protocol: N-89 and N-251 were diluted with DMSO. Sampling was performed with 100 μL of 2×SDS buffer 72 hours after the culture. 10 μL of a sample were applied to SDS-PAGE electrophoresis and subjected to Western blot analysis using an anti-HCV core antibody and an anti-β-actin antibody according to a conventional method. It should be noted that for the detection of β-actin, a sample diluted 10-fold with 2×SDS buffer in advance was used.

Data set [5] deals with renilla luciferase. Description: Influence on renilla luciferase activity in lysate of OR6 cells. Type of data set: biochemical. The note with it: OR6 cell lysate, concentrations of up to 20 μM. How it is done:
Thus, N-89 or N-251 was added (5 μL) to a lysate (10 μL) of the ORL8 cells (1×10^5 cells, medium for Li23 cell line) so as to achieve final concentrations of 0, 5, 10, and 20 μM, and 50 μL of a substrate were further added thereto. Then, the luciferase activity was measured.
Also in OR6 cells (medium for HuH-7 cell line), the renilla luciferase activity was measured by the same technique as in Example 6.
An actual luciferase activity value (RL activity value) at 100% on the ordinate axis was 1.1×10^6 in both of N-89 and N-251.

Data set [6] relates to HCV-RNA replication in ORL8 cells. Description: Effect of antioxidant vitamin E on anti-HCV activity in ORL8 cells (luciferase activity). The format is cell-based, HCV genotype 1b. The note with it: for luciferase activity, compound in combination with vitamin E: compound 0.5 μM + vitamin E 10 μM; for luciferase activity, compound in combination with vitamin E / luciferase activity (HCV activity), compound alone: 72 hours; for luciferase activity (HCV activity), compound alone: compound 0.5 μM alone; for canceling of the anti-HCV activity by vitamin E: vitamin E 10 μM. The protocol:
The effect of addition of vitamin E on the anti-HCV activity of N-89 was examined using ORL8 cells. An experimental scale and schedule are the same as those in Example 1.
N-89 and vitamin E were simultaneously added so that the concentrations of N-89 and vitamin E were set to 0.5 μM and 10 μM, respectively. The luciferase activity was measured 72 hours after the culture.
The effect of addition of vitamin E on the anti-HCV activity of N-251 was examined using ORL8 cells. An experimental scale and schedule are the same as those in Example 1.
N-251 and vitamin E were simultaneously added so that the concentrations of N-251 and vitamin E were set to 0.5 μM and 10 μM, respectively. The luciferase activity was measured 72 hours after the culture.
The effect of addition of vitamin E on the anti-HCV activity of artemisinin was examined using ORL8 cells. An experimental scale and schedule are the same as those in Example 1.
Artemisinin and vitamin E were simultaneously added so that the concentrations of artemisinin and vitamin E were set to 100 μM and 10 μM, respectively. The luciferase activity was measured 72 hours after the culture.

In data set [7] the test system is HCV-RNA replication in 1B-4RL cells (HCV-1B-4 strain, Li23-derived). Briefly: microbe, parasite or virus in culture. The format is cell-based, HCV genotype 1b. Conditions: for EC50: Hepatitis C virus, 72 hours, renilla luciferase activity. How it is done: For N-251, the results at concentrations of up to 1.3 μM are shown.

For the molecule `C1CCCCCC2(CCCCC1)OOCCCOO2` [N-89, 1,2,6,7-tetraoxaspiro[7,11]nonadecane], in data set [1], the “cytotoxicity at 1 μM (WST-1 assay)” value is listed as “not exhibiting cytotoxicity”. Besides, in data set [2], the “level of the HCV core protein (Western blot)” value (“level of the HCV core protein” below) is given as “reduced depending on the concentrations”. In data set [3], the “SI (CC50/EC50)” value came to 13 and a half-maximal response (EC50) required 190 nM. Further, the “level of the HCV core protein” value in data set [4] is on record as “reduced depending on the concentrations”. Also, in data set [5], the “inhibition on the renilla luciferase activity” value is “did not show any inhibition”. In data set [6], the “luciferase activity, compound in combination with vitamin E” value was found to be 245%; the “luciferase activity (HCV activity), compound alone” value was 27%; the “canceling of the anti-HCV activity by vitamin E” value is “completely canceled”. Moreover, in data set [7], the “SI (CC50/EC50)” value was 20 and the EC50 was 120 nM.
For `OCCCCCCC1COOC2(CCCCCCCCCCC2)OOC1` [N-251, 6-(1,2,6,7-tetraoxaspiro[7,11]nonadec-4-yl)], the “cytotoxicity at 1 μM (WST-1 assay)” value in data set [1] is listed as “not exhibiting cytotoxicity”. The molecule also had a CC50 in data set [1] (72 hours, WST-1) of 1300 nM. Further, the “level of the HCV core protein” value in data set [2] is given as “reduced depending on the concentrations”. Also, in data set [3], the “SI (CC50/EC50)” value is 11 and the EC50 is 290 nM. Further, in data set [4], the “level of the HCV core protein” value is listed as “reduced depending on the concentrations”. The “inhibition on the renilla luciferase activity” value in data set [5] is listed as “did not show any inhibition”. In addition, in data set [6], the “luciferase activity, compound in combination with vitamin E” value stood at 215%; the “luciferase activity (HCV activity), compound alone” value came out at 33%; the “canceling of the anti-HCV activity by vitamin E” value is listed as “completely canceled”. In data set [7], the “SI (CC50/EC50)” value came out at 8.3 and the concentration for a half-maximal effect (EC50) amounted to 230 nM.
